In this assay the test system is cancer cells. The assay can be described thus: MTS assay: inhibition of cell growth (formazan absorbance at 492 nm after 72 hours with test compound). The class given is cell-based. As to conditions: inhibition class. The gist of the method: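 DMEM with 1% FBS; cells seeded at 3000/well and grown 18 h at 37 °C, then exposed to compound for 72 h and to MTS/PMS for 4 h. IC50 is the concentration giving a 50% absorbance drop; grades are % inhibition bands.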
(Tetrazolium dyes change colour on reduction, which living cells bring about.)

Setting [1] is: Homo sapiens, DLD-1 cells, read-out: DLD-1, MTS 72 hours at 10 uM.
The mark [2] stands for this setting: Homo sapiens, KATO III cells, read-out: KATO III, MTS 72 hours at 10 uM.
[3] abbreviates: Homo sapiens, MDA-MB-231 cells, read-out: MDA-MB-231, MTS 72 hours at 10 uM.
Where [4] appears, read: Homo sapiens, NCI-H1299 cells, read-out: NCI-H1299, MTS 72 hours at 10 uM.
Where [5] appears, read: Homo sapiens, PC-3 cells, read-out: PC-3, MTS 72 hours at 10 uM.
The mark [6] stands for this setting: PACA-2 cells, read-out: PACA-2, MTS 72 hours at 10 uM.

The structures appear in SMILES notation. Read-outs that look alike come from different tables or passages of the source. Some results are limits rather than exact numbers.

As for `CSc1nc2c3c(nn(C)c3n1)CCN2Cc1ccccc1` [Compound 171, 6-benzyl-2-methyl-4-(methylsulfanyl)-2,6,7,8-tetrahydro-1,2,3,5,6-pentaazaacenaphthylene], the inhibition at 10 µM was over 79% under setting [1]; over 79% under setting [2]; over 79% under setting [3]; 50 to 79% under setting [4]; over 79% under setting [5]; over 79% under setting [6].
Turning to `COC(=O)Cn1nc2c3c(nc(SC)nc31)N(Cc1ccccc1)CC2` [Compound 172, methyl [6-benzyl-4-(methylsulfanyl)-7,8-dihydro-1,2,3,5,6-pentaazaacenaphthylen-2(6H)-yl]acetate], the inhibition at 10 µM reads like this: under setting [1], 50 to 79%; under setting [2], under 50%; under setting [3], under 50%; under setting [4], under 50%; under setting [5], over 79%; under setting [6], over 79%.
`c1ccc(CNc2nc3c4c(n[nH]c4n2)CCN3c2ccccc2)cc1` [Compound 208, N-benzyl-6-phenyl-2,6,7,8-tetrahydro-1,2,3,5,6-pentaazaacenaphthylen-4-amine]: the inhibition at 10 µM under setting [1] is under 50%; the inhibition at 10 µM under setting [2] was under 50%; the inhibition at 10 µM under setting [3] was under 50%; the inhibition at 10 µM under setting [4] was under 50%; the inhibition at 10 µM under setting [5] is under 50%; the inhibition at 10 µM under setting [6] is under 50%.
As to `Clc1ccccc1CNc1nc2c3c(n[nH]c3n1)CCN2c1ccccc1` [Compound 209, N-(2-chlorobenzyl)-6-phenyl-2,6,7,8-tetrahydro-1,2,3,5,6-pentaazaacenaphthylen-4-amine], the inhibition at 10 µM is under 50% under setting [1]; 50 to 79% under setting [2]; under 50% under setting [3]; under 50% under setting [4]; under 50% under setting [5]; under 50% under setting [6].
For the compound `c1ccc(N2CCc3n[nH]c4nc(N5CCN(c6ccncc6)CC5)nc2c34)cc1` [Compound 210, 6-phenyl-4-(4-pyridin-4-ylpiperazin-1-yl)-2,6,7,8-tetrahydro-1,2,3,5,6-pentaazaacenaphthylene], the inhibition at 10 µM was over 79% under setting [1]; over 79% under setting [2]; over 79% under setting [3]; over 79% under setting [4]; over 79% under setting [5]; over 79% under setting [6].
With `c1ccc(N2CCc3n[nH]c4nc(NC5CCCCC5)nc2c34)cc1` [Compound 211, N-cyclohexyl-6-phenyl-2,6,7,8-tetrahydro-1,2,3,5,6-pentaazaacenaphthylen-4-amine], the inhibition at 10 µM was under 50% under setting [1]; under 50% under setting [2]; under 50% under setting [3]; under 50% under setting [4]; under 50% under setting [5]; under 50% under setting [6].
For the compound `c1ccc(OCCNc2nc3c4c(n[nH]c4n2)CCN3c2ccccc2)cc1` [Compound 212, N-(4-phenoxyethyl)-6-phenyl-2,6,7,8-tetrahydro-1,2,3,5,6-pentaazaacenaphthylen-4-amine], the inhibition at 10 µM is, setting by setting: under setting [1], under 50%; under setting [2], under 50%; under setting [3], under 50%; under setting [4], under 50%; under setting [5], under 50%; under setting [6], under 50%.
For the compound `Clc1ccc(CNc2nc3c4c(n[nH]c4n2)CCN3c2ccccc2)cc1` [Compound 213, N-(4-chlorobenzyl)-6-phenyl-2,6,7,8-tetrahydro-1,2,3,5,6-pentaazaacenaphthylen-4-amine], the inhibition at 10 µM is, setting by setting: under setting [1], under 50%; under setting [2], under 50%; under setting [3], under 50%; under setting [4], 50 to 79%; under setting [5], under 50%; under setting [6], 50 to 79%.
Turning to `c1ccc(N2CCc3n[nH]c4nc(NCc5cccnc5)nc2c34)cc1` [Compound 214, 6-phenyl-N-(pyridin-3-ylmethyl)-2,6,7,8-tetrahydro-1,2,3,5,6-pentaazaacenaphthylen-4-amine], the inhibition at 10 µM is, setting by setting: under setting [1], 50 to 79%; under setting [2], 50 to 79%; under setting [3], under 50%; under setting [4], 50 to 79%; under setting [5], under 50%; under setting [6], 50 to 79%.
For `c1ccc(N2CCc3n[nH]c4nc(NCCN5CCOCC5)nc2c34)cc1` [Compound 215, N-(2-morpholin-4-ylethyl)-6-phenyl-2,6,7,8-tetrahydro-1,2,3,5,6-pentaazaacenaphthylen-4-amine], the inhibition at 10 µM is, setting by setting: under setting [1], under 50%; under setting [2], under 50%; under setting [3], under 50%; under setting [4], under 50%; under setting [5], under 50%; under setting [6], under 50%.
For the compound `c1ccc(N2CCc3n[nH]c4nc(N5CCCC5)nc2c34)cc1` [Compound 216, 6-phenyl-4-pyrrolidin-1-yl-2,6,7,8-tetrahydro-1,2,3,5,6-pentaazaacenaphthylene], the inhibition at 10 µM was under 50% under setting [1]; under 50% under setting [2]; under 50% under setting [3]; under 50% under setting [4]; under 50% under setting [5]; 50 to 79% under setting [6].
On to `c1ccc(CN2CCN(c3nc4c5c(n[nH]c5n3)CCN4c3ccccc3)CC2)cc1` [Compound 217, 4-(4-benzylpiperazin-1-yl)-6-phenyl-2,6,7,8-tetrahydro-1,2,3,5,6-pentaazaacenaphthylene], for which the inhibition at 10 µM reads like this: under setting [1], under 50%; under setting [2], under 50%; under setting [3], under 50%; under setting [4], under 50%; under setting [5], under 50%; under setting [6], under 50%.
Consider `c1ccc(N2CCc3n[nH]c4nc(N5CCOCC5)nc2c34)cc1` [Compound 218, 4-morpholin-4-yl-6-phenyl-2,6,7,8-tetrahydro-1,2,3,5,6-pentaazaacenaphthylene], for which the inhibition at 10 µM by setting is: under setting [1], under 50%; under setting [2], under 50%; under setting [3], under 50%; under setting [4], under 50%; under setting [5], under 50%; under setting [6], under 50%.
As for `CN1CCC(Nc2nc3c4c(n[nH]c4n2)CCN3c2ccccc2)CC1` [Compound 219, N-(1-methylpiperidin-4-yl)-6-phenyl-2,6,7,8-tetrahydro-1,2,3,5,6-pentaazaacenaphthylen-4-amine], the inhibition at 10 µM is over 79% under setting [1]; over 79% under setting [2]; over 79% under setting [3]; 50 to 79% under setting [4]; over 79% under setting [5]; over 79% under setting [6].
In the case of `c1ccc(CCNc2nc3c4c(n[nH]c4n2)CCN3c2ccccc2)cc1` [Compound 220, 6-phenyl-N-(2-phenylethyl)-2,6,7,8-tetrahydro-1,2,3,5,6-pentaazaacenaphthylen-4-amine], the inhibition at 10 µM runs as follows: under setting [1], over 79%; under setting [2], over 79%; under setting [3], 50 to 79%; under setting [4], 50 to 79%; under setting [5], 50 to 79%; under setting [6], over 79%.
As to `Fc1ccc(CCNc2nc3c4c(n[nH]c4n2)CCN3c2ccccc2)cc1` [Compound 221, N-[2-(4-fluorophenyl)ethyl]-6-phenyl-2,6,7,8-tetrahydro-1,2,3,5,6-pentaazaacenaphthylen-4-amine], the inhibition at 10 µM by setting is: under setting [1], under 50%; under setting [2], under 50%; under setting [3], under 50%; under setting [4], under 50%; under setting [5], under 50%; under setting [6], under 50%.
Turning to `CCOC(=O)C1CN(Cc2ccccc2)c2nc(SC)nc3[nH]nc1c23` (stereo not drawn) [Compound 222, ethyl 6-benzyl-4-(methylsulfanyl)-2,6,7,8-tetrahydro-1,2,3,5,6-pentaazaacenaphthylene-8-carboxylate], the inhibition at 10 µM under setting [1] is under 50%; the inhibition at 10 µM under setting [2] is under 50%; the inhibition at 10 µM under setting [3] was under 50%; the inhibition at 10 µM under setting [4] is under 50%; the inhibition at 10 µM under setting [5] is under 50%; the inhibition at 10 µM under setting [6] was under 50%.
For the compound `CN(C)CCCNc1nc2c3c(n[nH]c3n1)C(C(=O)NCc1ccccc1)CN2Cc1ccccc1` (stereo not drawn) [Compound 223, N,6-dibenzyl-4-{[3-(dimethylamino)propyl]ami-no}-2,6,7,8-tetrahydro-1,2,3,5,6-pentaazaacenaphthylene-8-carboxamide], the inhibition at 10 µM was under 50% under setting [1]; under 50% under setting [2]; under 50% under setting [3]; under 50% under setting [4]; under 50% under setting [5]; under 50% under setting [6].
Turning to `COc1cccc(CCNc2nc3c4c(n[nH]c4n2)C(C(=O)NCc2ccccc2)CN3Cc2ccccc2)c1` (stereo not drawn) [Compound 224, N,6-dibenzyl-4-{[2-(3-methoxyphenyl)ethyl]amino}-2,6,7,8-tetrahydro-1,2,3,5,6-pentaazaacenaphthylene-8-carboxamide], the inhibition at 10 µM is under 50% under setting [1]; under 50% under setting [2]; under 50% under setting [3]; under 50% under setting [4]; under 50% under setting [5]; under 50% under setting [6].
